Reference: PubChem BioAssay AID602296 (Broad Institute, 2012)
Results filed as inconclusive are left out. Active and inactive are the calls of the source.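 How the source made its calls: active means fitted activation curve crossing 40% at a concentration no higher than the sample's top valid tested dose; inconclusive means flat fitted curve at 30% to 70% activation, or poor curve fit; inactive means signal decrease, flat curve within 30%, or the rest.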

Each molecule was assayed on NIH3T3-HGL HSF-1 response element luciferase, 48 h (assay: HSF-1 reporter activators over prolonged exposure, confirmation, cell-based, mouse, luciferase, cherry-pick, dose (AID 602296);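 further: test compounds applied by themselves with no MG132 co-treatment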).

Row | SMILES | AC40
1 | CC(=O)SC(C[N+](=O)[O-])c1cn(C(C)=O)c2ccccc12 (stereo not drawn) | > 26 µM (inactive)
2 | COC(=O)c1ccc(CSc2ncnc3c2oc2ccccc23)o1 | > 26 µM (inactive)
3 | Cc1csc2nc(CCNS(=O)(=O)c3cccs3)cn12 | 2.76 µM
4 | Cc1nc(-c2ccc(Cl)cc2)sc1C(=O)CBr | 11.5 µM
5 | COC(=O)CC/C(O)=C1/C(=N)CC(C)(C)CC1=O | > 12 µM (inactive)
6 | COc1ccc(/C=C(\C#N)C(=O)Nc2cccc(C)n2)cc1 | > 26 µM (inactive)
7 | Cn1c(CCC(=O)OCC(=O)Nc2ccc(Oc3ccccc3)cc2)nc(=O)c2ccccc21 | > 26 µM (inactive)
8 | Cc1ccc(C(=O)OCC(=O)c2ccc(Cl)s2)s1 | 15.1 µM
9 | O=C(O)CC12C[C@H]3C[C@@H](C1)CC(n1ncc(N4CCN(c5ccccc5)CC4)c(Cl)c1=O)(C3)C2 | > 26 µM (inactive)
10 | CCCC12CN3CC(C)(CN(C1)C3c1ccc3c(c1)OCO3)C2=O (stereo not drawn) | > 26 µM (inactive)
11 | O=C(CSc1nnc(-c2ccc(F)cc2)c2ccccc12)Nc1ccccc1 | 18.7 µM
12 | Cc1ccccc1NC(=O)C1CCCN(C(=O)NCc2ccccc2)C1 (stereo not drawn) | > 26 µM (inactive)
13 | CC(Oc1ccc(F)cc1Br)c1nc2ccccc2c(=O)[nH]1 (stereo not drawn) | 17.3 µM
14 | Cc1ccc(C(=O)NNC(=O)c2ccccc2-n2cccc2)cc1 | > 26 µM (inactive)
15 | CC(C)(C)NC(=O)c1ccc2c(c1)N(CC(=O)N1CCCCC1)C(=O)C(C)(C)O2 | > 26 µM (inactive)
16 | c1ccc2c3c([nH]c2c1)CCNC3 | > 26 µM (inactive)
17 | Cc1[nH]c2ccccc2c1/C=C(\C#N)C(=O)NCC1CCCO1 (stereo not drawn) | 9.18 µM
18 | CC1(C)CC(=O)C=C(NC2=CC3OC(c4ccccc4)OCC3OC2=O)C1 (stereo not drawn) | 13.2 µM
19 | O=C1c2cccc3cccc(c23)C(=O)N1OS(=O)(=O)c1ccccc1 | 16 µM
20 | COc1ccc(C2(C)NC(=O)N(CC3CCCCC3)C2=O)cc1 (stereo not drawn) | > 26 µM (inactive)
21 | Cc1ccccc1-n1nnc2c(=O)oc3ccccc3c21 | > 26 µM (inactive)
22 | Cc1ccc(NC(=O)Cn2c(CCC(=O)O)ccc2-c2cccs2)cc1 | > 26 µM (inactive)

Row | SMILES | AC40
23 | Oc1cccnc1Sc1cccc(C(F)(F)F)c1 | > 26 µM (inactive)
24 | Cc1ccc2oc(C(=O)N3CCC(O)(c4cccc(C(F)(F)F)c4)CC3)c(C)c2c1 | 9.28 µM
25 | CCN1C(=O)CC(N2CCN(c3ccc(C(=O)c4ccccc4)cc3)CC2)C1=O (stereo not drawn) | 3.85 µM
26 | O=C(c1ccc2c(=O)n(C3CCCC3)c(=S)[nH]c2c1)N1CCc2ccccc21 | > 26 µM (inactive)
27 | CCCCOc1ccc(-c2nc(/C=N/c3nccs3)c(O)o2)cc1 | 18.4 µM
28 | Cc1ccc(C(=O)n2cnnc2N)cc1 | > 26 µM (inactive)
29 | CC(C)(CNC(=O)/C=C/c1ccc(F)cc1)CNC(=O)/C=C/c1ccc(F)cc1 | > 26 µM (inactive)
30 | CC(=O)c1ccc(NC(=S)N2C(C)CCCC2C)cc1 (stereo not drawn) | 20.8 µM
31 | Cc1ccc(NC2=NC3(CCCC3)N=C(N)N2)c(C)c1 | > 26 µM (inactive)
32 | Clc1ncnc2scc(C3COc4ccccc4O3)c12 (stereo not drawn) | 17.7 µM
33 | CC(C)(C)c1ccc(COc2ccsc2C(=O)O)cc1 | 4.42 µM
34 | O=C1NC(=S)S/C1=C/c1ccc(OC(=O)c2ccco2)cc1 | 22.5 µM
35 | Cc1ncc([N+](=O)[O-])n1CCOC(=O)c1cc(Cl)cc(Cl)c1N | > 26 µM (inactive)
36 | O=C(NC1CCCCC1)C1CCCN1S(=O)(=O)c1cccc2nsnc12 (stereo not drawn) | > 26 µM (inactive)
37 | O=C(Nc1cccn2ncnc12)C(F)(F)F | > 26 µM (inactive)
38 | CN(C)CCNC(=O)/C(=C/c1ccc(-c2cccc(Cl)c2)o1)NC(=O)c1ccccc1 | > 26 µM (inactive)
39 | CC1=CC(=O)C=C(C)C1=NOC(=O)/C=C\c1ccccc1 | > 26 µM (inactive)
40 | COc1cc(CNCC(O)c2ccccc2)ccc1OCc1ccc(Cl)nc1 (stereo not drawn) | > 26 µM (inactive)
41 | COC(=O)C(C)Sc1nc2c(c(=O)n(C)c(=O)n2C)n1CCC(C)C (stereo not drawn) | > 26 µM (inactive)
42 | C/C(=C\C(=O)Nc1cscc1C)C(=O)O | > 26 µM (inactive)
43 | S=C(Nc1ccc(Cl)cc1)Nc1cccc2cnccc12 | > 26 µM (inactive)
